Values after ≈ are worked out from the molar mass of the structure shown. Where two headings read alike, the source gives them in different places.
Experiments:
[1] = tested on: Aspergillus fumigatus IAM 2034; assay: MIC, two-fold agar dilution, A. fumigatus IAM 2034; assay type: cell-based; conditions: IAM2034
Procedure, shortened: (§1)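 Agar dilution (two-fold) on yeast morphology agar with 1/15 M phosphate buffer, pH 7.0; spots of 5 μl suspension at 2×10^6 cells/ml. Read after 40 h at 28° C. MIC = lowest concentration giving no growth or fewer than five discrete colonies per spot.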

[2] = tested on: Candida albicans IAM 4888; assay: MIC, two-fold agar dilution, C. albicans IAM 4888; assay type: cell-based; conditions: IAM4888, YMA pH 7.0, 28° C., 40 hours
Procedure, shortened: as §1

[3] = tested on: Candida albicans ATCC 32354; assay: MIC, two-fold agar dilution, C. albicans ATCC 32354; assay type: cell-based; conditions: ATCC32354, YMA pH 7.0, 28° C., 40 hours
Procedure, shortened: as §1

[4] = tested on: Trichophyton mentagrophytes #4329; assay: MIC, two-fold agar dilution, T. mentagrophytes #4329; assay type: cell-based
Procedure, shortened: (§2)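 Two-fold agar dilution used yeast morphology agar with 1/15 M phosphate buffer at pH 7.0. Spots of 5 μl held 2×10^6 cells/ml (2×10^7 for T. mentagrophytes) and were incubated at 28 °C for 60 h for both strains. MIC was the lowest concentration giving no growth or fewer than five colonies per spot.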

[5] = tested on: Saccharomyces cerevisiae ATCC 9763; assay: MIC, two-fold agar dilution, S. cerevisiae ATCC 9763; assay type: cell-based; conditions: ATCC9763, YMA pH 7.0, 28° C., 40 hours
Procedure, shortened: as §1

[6] = tested on: Candida albicans 83-2-14; assay: MIC, two-fold agar dilution, C. albicans 83-2-14; assay type: cell-based; conditions: 83214, YMA pH 7.0, 28° C., 40 hours
Procedure, shortened: as §1

[7] = tested on: Cryptococcus neoformans D49; assay: MIC, two-fold agar dilution, C. neoformans D49; assay type: cell-based; conditions: YMA pH 7.0, 28° C., 40 hours
Procedure, shortened: as §1

[8] = tested on: Aspergillus fumigatus IAM 2034; assay: Therapeutic efficacy in Aspergillus fumigatus systemic infection in mice; assay type: in vivo, male ICR mice infected with Aspergillus fumigatus IAM 2034; conditions: IAM2034, 480 h; for responders at 6.3 mg/kg: 6.3 mg/kg iv; for responders at 6.3 mg/kg / responders at 12.5 mg/kg / responders at 25 mg/kg / responders at 50 mg/kg: 20th day post-infection, read-out: S/T (No. of survivors/tested) (converted); for responders at 12.5 mg/kg: 12.5 mg/kg iv; for responders at 25 mg/kg: 25 mg/kg iv; for responders at 50 mg/kg: 50 mg/kg iv
Procedure, shortened: (§3)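 Male ICR mice (20-25 g, five per dose) were infected IV with about 10× LD50 of C. albicans A9540 (1×10^6 cells) or A. fumigatus IAM 2034 (1×10^7 cells). Compounds in 10% DMSO were given IV immediately after infection.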

[9] = Water solubility at neutral pH in PBS containing Ca^2+/Mg^2+; assay type: physicochemical; conditions: pbs with ca2+/mg2+; Table 3; water-solubility at neutral pH in phosphate buffered saline containing Ca^2+/Mg^2+
Procedure: The compounds of the invention have good water solubility. Typically, the water solubility is greater than 10 mg/ml when measured at neutral pH in PBS containing Ca^2+ /Mg^2+, preferably greater than 20 mg/ml.
^2) Water-solubility at neutral pH in phosphate buffered saline
containing Ca^2+ /Mg^2+.

[10] = tested on: Cryptococcus neoformans IAM 4514; assay: MIC, two-fold agar dilution, C. neoformans IAM 4514; assay type: cell-based; conditions: IAM4514
Procedure, shortened: as §1

[11] = tested on: Candida albicans A9540; assay: MIC, two-fold agar dilution, C. albicans A9540; assay type: cell-based
Procedure, shortened: as §1

[12] = tested on: Candida albicans ATCC 38247; assay: MIC, two-fold agar dilution, C. albicans ATCC 38247; assay type: cell-based; conditions: ATCC38247, YMA pH 7.0, 28° C., 60 hours (table footnote)
Procedure, shortened: as §2

[13] = tested on: Candida tropicalis 85-8; assay: MIC, two-fold agar dilution, C. tropicalis 85-8; assay type: cell-based; conditions: 858, YMA pH 7.0, 28° C., 40 hours
Procedure, shortened: as §1

[14] = tested on: Candida tropicalis IFO 10241; assay: MIC, two-fold agar dilution, C. tropicalis IFO 10241; assay type: cell-based; conditions: IFO10241, YMA pH 7.0, 28° C., 40 hours
Procedure, shortened: as §1

[15] = tested on: Candida albicans A9540; assay: animal or person; assay type: in vivo, male ICR mice infected with Candida albicans A9540; conditions: Candida albicans; for ED50: Table 2, 95% confidence limits in parentheses, read-out: PD50 (50% protection dose)
Procedure, shortened: as §3

[16] = Aspergillus fumigatus IAM 2034, YMA pH 7.0, 28° C., 40 hours, read-out: MIC
[17] = Table 3, Aspergillus fumigatus IAM 2034, YMA, read-out: MIC Af-3
[18] = Table 3, Trichophyton mentagrophytes #4329, YMA, read-out: MIC TM-4
[19] = Trichophyton mentagrophytes #4329, YMA pH 7.0, 28° C., 60 hours, read-out: MIC
[20] = Aspergillus fumigatus, A. fumigatus, mice
[21] = Aspergillus fumigatus, Table 2, A. fumigatus, mice, iv, 95% confidence limits in parentheses, read-out: PD50 (50% protection dose)
[22] = Cryptococcus neoformans IAM 4514, YMA pH 7.0, 28° C., 40 hours, read-out: MIC
[23] = Table 3, Cryptococcus neoformans IAM 4514, YMA, read-out: MIC Cn-2
[24] = Candida albicans A9540, YMA pH 7.0, 28° C., 40 hours, read-out: MIC
[25] = Table 3, Candida albicans A9540, YMA, read-out: MIC Ca-4
[26] = A9540, 480 h, C. albicans, mice, iv
[27] = A9540, in Mus musculus, iv, 480 h, read-out: S/T (No. of survivors/tested)

COc1cc(O)c2c(c1)C(=O)c1c(cc3c(c1O)-c1c(cc(C)c(C(=O)N[C@H](C)C(=O)O)c1O)[C@H](O[C@@H]1O[C@H](C)[C@H](NC#N)[C@H](O[C@@H]4OC[C@@H](O)[C@H](O)[C@H]4O)[C@H]1O)[C@H]3O)C2=O [KHM-2, 4'-N-Cyanopradimicin C]
MIC [1, 16]: 3.1 µg/mL (≈ 3.64 µM)
MIC [1, 17]: 3.1 µg/mL (≈ 3.64 µM)
MIC [2]: 3.1 µg/mL (≈ 3.64 µM)
MIC [3]: 3.1 µg/mL (≈ 3.64 µM)
MIC [4, 18]: 12.5 µg/mL (≈ 14.7 µM)
MIC [4, 19]: 12.5 µg/mL (≈ 14.7 µM)
MIC [5]: 3.1 µg/mL (≈ 3.64 µM)
MIC [6]: 6.3 µg/mL (≈ 7.4 µM)
MIC [7]: 3.1 µg/mL (≈ 3.64 µM)
responders at 6.3 mg/kg [8, 20]: 0%
responders at 12.5 mg/kg [8, 20]: 20%
responders at 25 mg/kg [8, 20]: 40%
responders at 50 mg/kg [8, 20]: 60%
ED50 [8, 21]: 27 mg/kg
solubility [9]: > 20 mg/mL
MIC [10, 22]: 1.6 µg/mL (≈ 1.88 µM)
MIC [10, 23]: 1.6 µg/mL (≈ 1.88 µM)
MIC [11, 24]: 3.1 µg/mL (≈ 3.64 µM)
MIC [11, 25]: 3.1 µg/mL (≈ 3.64 µM)
MIC [12]: 1.6 µg/mL (≈ 1.88 µM)
MIC [13]: 12.5 µg/mL (≈ 14.7 µM)
MIC [14]: 12.5 µg/mL (≈ 14.7 µM)
responders at 6.3 mg/kg ([15]; A9540, 480 h, C. albicans, mice, 6.3 mg/kg iv, 20th day post-infection, read-out: S/T (No. of survivors/tested) (converted)): 20%
responders at 12.5 mg/kg ([15]; A9540, 480 h, C. albicans, mice, 12.5 mg/kg iv, 20th day post-infection, read-out: S/T (No. of survivors/tested) (converted)): 40%
responders at 25 mg/kg ([15]; A9540, 480 h, C. albicans, mice, 25 mg/kg iv, 20th day post-infection, read-out: S/T (No. of survivors/tested) (converted)): 80%
responders at 50 mg/kg ([15]; A9540, 480 h, C. albicans, mice, 50 mg/kg iv, 20th day post-infection, read-out: S/T (No. of survivors/tested) (converted)): 100%
ED50 [15, 26]: 13 mg/kg

COc1cc(O)c2c(c1)C(=O)c1c(cc3c(c1O)-c1c(cc(C)c(C(=O)N[C@H](C)C(=O)O)c1O)[C@H](O[C@@H]1O[C@H](C)[C@H](N(C)N=O)[C@H](O[C@@H]4OC[C@@H](O)[C@H](O)[C@H]4O)[C@H]1O)[C@H]3O)C2=O [KHM-6, 4'-N-Nitrosopradimicin A]
MIC [1, 16]: 3.1 µg/mL (≈ 3.56 µM)
MIC [1, 17]: 3.1 µg/mL (≈ 3.56 µM)
MIC [2]: 6.3 µg/mL (≈ 7.24 µM)
MIC [3]: 3.1 µg/mL (≈ 3.56 µM)
MIC [4, 18]: 3.1 µg/mL (≈ 3.56 µM)
MIC [4, 19]: 3.1 µg/mL (≈ 3.56 µM)
MIC [5]: 3.1 µg/mL (≈ 3.56 µM)
MIC [6]: 6.3 µg/mL (≈ 7.24 µM)
MIC [7]: 1.6 µg/mL (≈ 1.84 µM)
responders at 6.3 mg/kg [8, 20]: 0%
responders at 12.5 mg/kg [8, 20]: 40%
responders at 25 mg/kg [8, 20]: 0%
responders at 50 mg/kg [8, 20]: 40%
ED50 [8, 21]: > 50 mg/kg
ED50 ([8]; Table 3, Aspergillus fumigatus IAM 2034, iv, read-out: PD50 (mice) Af-3): > 50 mg/kg
solubility [9]: > 20 mg/mL
MIC [10, 22]: 1.6 µg/mL (≈ 1.84 µM)
MIC [10, 23]: 1.6 µg/mL (≈ 1.84 µM)
MIC [11, 24]: 6.3 µg/mL (≈ 7.24 µM)
MIC [11, 25]: 6.3 µg/mL (≈ 7.24 µM)
MIC [12]: 1.6 µg/mL (≈ 1.84 µM)
MIC [13]: 12.5 µg/mL (≈ 14.4 µM)
MIC [14]: 12.5 µg/mL (≈ 14.4 µM)
ED50 [15, 26]: 27 mg/kg
responders at 6.3 mg/kg [15, 27]: 0%
responders at 12.5 mg/kg [15, 27]: 20%
responders at 25 mg/kg [15, 27]: 20%
responders at 50 mg/kg [15, 27]: 80%
